Article PMC9865188 (Pharmaceutics, 2023)
Where two headings read alike, the source gives them in different places.

Assays:
[1] = target: P-gp (Homo sapiens, UniProt P08183); assay: Calcein-AM assay in MDCKII-MDR1 cells; format: cell-based; parameters: Piet Borst (Netherlands Cancer Institute); host or cells: MDCKII
Procedure: Before the experiment, growth medium was removed by vacuum suction (Vacusip, Integra Biosciences, NH, USA), 100 µL HEPES HBSS pH 7.4 was added to each well with a multichannel pipette, and the cells were incubated on a Talboys 1000 MP incubating microplate shaker (Troemner, NJ, USA, 220 rpm, 37 °C).
A total of 170 µL of the test solutions could then be transferred from the 96-well plate to the cell-containing plate at the start of preincubation. […] Wells containing HEPES HBSS pH 7.4 only served as a positive control. The cells were preincubated with test solutions (serial and spike) for 10 min on a microplate shaker (37 °C, 220 rpm). To start the experiment, 30 µL 33.3 µM calcein-AM in HEPES HBSS pH 7.4 was added to each well with a multichannel pipette, and the plate was stirred for 1 min on a microplate shaker (37 °C, 220 rpm) before being transferred to a Fluostar Omega plate reader.
One column of wells was kept without cells to measure background fluorescence signals from the applied buffers and compounds.

[2] = Pharmacokinetic study in Sprague Dawley rats (oral gavage); format: in vivo; details: for AUC(0-t) / Cmax / bioavailability / half-life: male, Sprague-Dawley, rat, plasma, po; for AUC(0-t): Zosuquidar AUC0–6h; for Cmax: Zosuquidar Cmax; for bioavailability: Zosuquidar bioavailability; for half-life: Zosuquidar t½
Procedure: The study was conducted according to the European Convention for the Protection of Vertebrate Animals used for Experimental and other Scientific Purposes (ETS no. 123) and Belgian law controlling the experiments on animals (Royal Decree of 29 May 2013 for the protection of laboratory animals). Animals were allowed minimum five days to acclimatise upon arrival from the supplier, and they were housed in polysulphone cages (58 × 52 × 20 cm) in groups of six provided with wooden sticks for enrichment. Animals had free access to Safe 04 Maintenance Diet (Safe, Rosenberg, Germany) and water during acclimatisation and during the study.
Male Sprague Dawley rats (Charles River, Dortmund, Germany) weighing 293–358 g were randomly assigned into six groups of six animals. Formulations were prepared as clear solutions in 40% v/v ethanol–water and 10 mL/kg was administered to each animal by oral gavage. […] Plasma samples were taken by tail vein puncture with a needle followed by collection in 32–64 µL micro haematocrit tubes (Vitrex Medical, Herlev, Denmark) at times 15, 30, and 45 min and 1, 2, 3, 4, and 6 h. Samples were centrifuged, and plasma was transferred into 10 µL end-to-end pipettes (Vitrex Medical, Herlev, Denmark) and immediately frozen at −80 °C until bioanalysis. Immediately after the study, animals were euthanised according to the principles of euthanasia stated in the AVMA Guidelines for the Euthanasia of Animals (American Veterinary Medical Association, 2020). Plasma samples were analysed by a previously described qualified LC-MS/MS method.
Pharmacokinetic parameters were calculated individually for each animal subject and pooled for statistical analysis. The plasma concentration at 15 min (C15min) was reported as an average of the plasma concentration of the six animals in each group. […] Elimination rate constants (ke) were calculated by linear regression of the linear part of the ln(plasma concentration) versus time profiles, and plasma half-life (t½) was calculated from ke:(3) t½=ln (2)/ke

[3] = Nonspecific zosuquidar adsorption to glass HPLC vials; format: physicochemical; details: for nonspecific zosuquidar adsorption: 25% methanol in HEPES HBSS pH 7.4; for zosuquidar concentration found (theoretical 250 nM): HEPES HBSS pH 7.4 in glass vial
Procedure: Generally, when zosuquidar was diluted in aqueous solutions, less zosuquidar than expected was present according to HPLC-FL quantitation, when compared to the corresponding dilutions in water–organic solvent mixtures. […] These were further diluted in methanol or DMSO to 100 µM. For adsorption experiments, solutions of 0.5–49.5% v/v methanol or DMSO in HEPES HBSS pH 7.4 were prepared, along with HEPES HBSS pH 7.4 supplemented with 0.10, 1.0, 2.5, 5.0, 10, or 50 µM polysorbate 20 or 0.05% bovine serum albumin, as well as 10 mM MES HBSS pH 6.5, 10 mM ammonium acetate pH 4.5, 19 mM maleic acid buffer pH 6.5, and FaSSIF-V2. […] The vials were capped and vortexed for 1 min and equilibrated at ambient temperature for approximately 24 h before HPLC-FL analysis. The peak area of the samples was normalised to the peak area of control samples, which were considered to elicit 0% adsorption. […] Both vials were equilibrated at room temperature for at least 24 h. […] The solutions in both vials were then analysed directly by HPLC-FL.

[4] = cited from earlier work
[5] = HEPES HBSS pH 7.4 + 5 or 10 µM polysorbate 20, 1% methanol, or 1% DMSO
[6] = 2 mg/kg, group D: zosuquidar 2.0 mg/kg + etoposide 20 mg/kg + 5.0% v/v polysorbate 20 oral
[7] = 6.3 mg/kg, group E: zosuquidar 6.3 mg/kg + etoposide 20 mg/kg + 5.0% v/v polysorbate 20 oral
[8] = 6.3 mg/kg, group F: zosuquidar 6.3 mg/kg + etoposide 20 mg/kg + 10% v/v polysorbate 20 oral
[9] = group G*: zosuquidar 2.0 mg/kg + etoposide 20 mg/kg oral
[10] = group H*: zosuquidar 6.3 mg/kg + etoposide 20 mg/kg oral

Sequence of P-gp (P08183 whole entry): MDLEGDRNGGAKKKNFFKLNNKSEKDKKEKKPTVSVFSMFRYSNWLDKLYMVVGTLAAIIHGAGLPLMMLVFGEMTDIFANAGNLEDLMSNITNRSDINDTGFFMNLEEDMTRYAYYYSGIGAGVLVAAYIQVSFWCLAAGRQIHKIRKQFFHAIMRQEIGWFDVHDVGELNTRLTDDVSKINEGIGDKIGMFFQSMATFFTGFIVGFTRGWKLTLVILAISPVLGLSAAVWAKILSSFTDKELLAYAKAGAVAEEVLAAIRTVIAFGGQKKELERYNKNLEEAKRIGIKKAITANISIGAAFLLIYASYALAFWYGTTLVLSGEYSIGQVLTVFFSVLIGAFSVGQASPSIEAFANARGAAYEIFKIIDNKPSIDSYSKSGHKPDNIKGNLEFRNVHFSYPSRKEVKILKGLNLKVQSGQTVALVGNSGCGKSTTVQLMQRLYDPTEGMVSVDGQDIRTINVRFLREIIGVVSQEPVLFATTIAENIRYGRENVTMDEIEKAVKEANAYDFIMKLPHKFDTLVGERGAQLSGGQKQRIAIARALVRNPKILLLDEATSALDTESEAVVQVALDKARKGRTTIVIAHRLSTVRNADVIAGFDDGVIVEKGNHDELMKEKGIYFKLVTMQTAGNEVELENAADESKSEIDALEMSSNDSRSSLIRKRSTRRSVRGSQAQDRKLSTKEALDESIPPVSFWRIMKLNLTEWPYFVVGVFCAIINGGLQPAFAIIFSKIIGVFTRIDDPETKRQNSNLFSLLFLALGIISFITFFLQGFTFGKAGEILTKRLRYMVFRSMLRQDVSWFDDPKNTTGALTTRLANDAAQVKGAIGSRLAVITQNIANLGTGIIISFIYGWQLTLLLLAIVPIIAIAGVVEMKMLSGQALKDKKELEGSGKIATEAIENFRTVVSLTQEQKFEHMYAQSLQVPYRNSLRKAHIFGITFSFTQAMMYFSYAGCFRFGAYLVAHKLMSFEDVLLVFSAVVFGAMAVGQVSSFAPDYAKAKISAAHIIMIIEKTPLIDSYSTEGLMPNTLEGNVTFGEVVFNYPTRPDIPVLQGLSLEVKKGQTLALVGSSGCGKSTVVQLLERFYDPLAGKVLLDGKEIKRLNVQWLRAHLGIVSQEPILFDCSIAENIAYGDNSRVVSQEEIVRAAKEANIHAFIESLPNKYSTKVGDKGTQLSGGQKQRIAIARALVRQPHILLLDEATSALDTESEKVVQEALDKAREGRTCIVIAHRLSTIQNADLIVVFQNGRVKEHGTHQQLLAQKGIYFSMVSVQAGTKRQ

- mean P-gp activity ([1]; […] zosuquidar + 2.5 µM polysorbate 20, spike method): 61%
- mean P-gp activity ([1]; […] zosuquidar + 5 µM polysorbate 20, spike method): 46%
- discrepancy of IC50, serial dilution vs spike method ([1]; calcein-AM, zosuquidar alone): 60 fold
- Zosuquidar AUC0–6h ([2]; group B: zosuquidar 0.63 mg/kg + etoposide 20 mg/kg + 1.0% v/v polysorbate 20 oral): BLQ
- Zosuquidar tmax, median [Q1; Q3] ([2]; group E: zosuquidar 6.3 mg/kg + etoposide 20 mg/kg + 5.0% v/v polysorbate 20 oral): 60 [56;120] min
- AUC(0-t) [2, 6]: 18.9 ± 2.8 ng·h/mL
- Cmax [2, 6]: 4.8 ± 0.5 ng/mL
- bioavailability [2, 6]: 5.64 ± 0.83%
- half-life [2, 6]: 3 ± 0.383 h
- AUC(0-t) [2, 7]: 47 ± 3.7 ng·h/mL
- AUC(0-t) [2, 8]: 56.8 ± 4.2 ng·h/mL
- Cmax [2, 7]: 13.2 ± 1 ng/mL
- Cmax [2, 8]: 16.6 ± 1.1 ng/mL
- bioavailability [2, 7]: 4.45 ± 0.35%
- bioavailability [2, 8]: 5.38 ± 0.4%
- half-life [2, 7]: 2.53 ± 0.333 h
- half-life [2, 8]: 2.45 ± 0.167 h
- nonspecific zosuquidar adsorption ([3]; 500 nM zosuquidar): 2.19 ± 6.71%
- zosuquidar adsorption ([3]; 500 nM zosuquidar, 50% DMSO in HEPES HBSS pH 7.4): −5.9 ± 1.1%
- zosuquidar adsorption ([3]; 500 nM zosuquidar, FaSSIF-V2 pH 6.5): 13.6 ± 1.0%
- zosuquidar adsorption ([3]; 500 nM zosuquidar, HEPES HBSS pH 7.4 + 0.5% methanol): 97.0 ± 0.6%
- nonspecific zosuquidar adsorption ([3]; 0.75 µM zosuquidar): 6.83 ± 2.33%
- nonspecific zosuquidar adsorption ([3]; 2.5 µM zosuquidar): 2.76 ± 0.22%
- nonspecific zosuquidar adsorption ([3]; 7.5 µM zosuquidar): −0.10 ± 2.02%
- nonspecific zosuquidar adsorption ([3]; 25 µM zosuquidar): 32.5 ± 0.7%
- zosuquidar concentration found (theoretical 250 nM) ([3]; after transfer to a new vial): 38.1 ± 13.7 nM
- zosuquidar concentration found (theoretical 250 nM) ([3]; without transfer): 282 ± 8 nM
- effect on solubility [5]: did not significantly affect
Structure (SMILES): O[C@@H](COc1cccc2ncccc12)CN1CCN([C@@H]2c3ccccc3[C@@H]3[C@H](c4ccccc42)C3(F)F)CC1 [zosuquidar]
- Zosuquidar AUC0–6h ([4]; group F*: zosuquidar 0.63 mg/kg + etoposide 20 mg/kg oral): BLQ
- Zosuquidar AUC0–6h [4, 9]: 8.67 ± 0.77 ng·h/mL
- Zosuquidar Cmax [4, 9]: 2.10 ± 0.27 ng/mL
- Zosuquidar bioavailability [4, 9]: 2.58 ± 0.23%
- Zosuquidar tmax, median [Q1; Q3] [4, 9]: 120 [45;135] min
- Zosuquidar t½ [4, 9]: 3.62 ± 0.45 h
- Zosuquidar AUC0–6h [4, 10]: 43.6 ± 5.4 ng·h/mL
- Zosuquidar Cmax [4, 10]: 10.9 ± 1.2 ng/mL
- Zosuquidar bioavailability [4, 10]: 4.12 ± 0.51%
- Zosuquidar tmax, median [Q1; Q3] [4, 10]: 90 [45;120] min
- Zosuquidar t½ [4, 10]: 2.68 ± 0.217 h
